In PubChem BioAssay AID1745844 (Carcinogenic Potency Database (CPDB), 2022):
Where “and” joins values, the source holds several entries; their conditions need not be identical. Equal entries are not always repeated. Calls of active or inactive are those of the source. No rule for the calls is given here.

System: rodent lifetime carcinogenesis bioassay, tumor incidence TD50
Experiment: carcinogenic potency in animals, long-term in vivo studies, CPDB compilation (AID 1745844)
Settings: in feed

Structure (SMILES): CCC1(c2ccccc2)C(=O)NCNC1=O
- TD50 (mouse, strain B6C3F1, females, site: any site (literature study), lesion: several types, types named in the paper, dosed 101 weeks, study length 104 weeks): 163 mg/kg/day
- TD50 (mouse, strain B6C3F1, females, site: liver, lesion: hepatoblastoma + hepatocellular carcinoma, dosed 101 weeks, study length 104 weeks): 98.7 mg/kg/day
- TD50 (mouse, strain B6C3F1, females, site: liver, lesion: hepatoblastoma, dosed 101 weeks, study length 104 weeks): 1390 mg/kg/day
- TD50 (mouse, strain B6C3F1, females, site: liver, lesion: hepatocellular adenoma + hepatoblastoma + hepatocellular carcinoma, dosed 101 weeks, study length 104 weeks): 42.8 mg/kg/day
- TD50 (mouse, strain B6C3F1, females, site: liver, lesion: hepatocellular adenoma + hepatocellular carcinoma, dosed 101 weeks, study length 104 weeks): 28.9 mg/kg/day
- TD50 (mouse, strain B6C3F1, females, site: liver, lesion: hepatocellular adenoma, dosed 101 weeks, study length 104 weeks): 27.7 mg/kg/day
- TD50 (mouse, strain B6C3F1, females, site: liver, lesion: hepatocellular carcinoma, dosed 101 weeks, study length 104 weeks): 97.3 mg/kg/day
- TD50 (mouse, strain B6C3F1, males, site: all sites, lesion: histiocytic sarcoma, dosed 101 weeks, study length 103 weeks): 1150 mg/kg/day
- TD50 (mouse, strain B6C3F1, males, site: any site (literature study), lesion: several types, types named in the paper, dosed 101 weeks, study length 103 weeks): 77.6 mg/kg/day
- TD50 (mouse, strain B6C3F1, males, site: liver + thyroid gland, lesion: hepatocellular adenoma + hepatoblastoma + hepatocellular carcinoma + follicular-cell adenoma, dosed 101 weeks, study length 103 weeks): 60.2 mg/kg/day
- TD50 (mouse, strain B6C3F1, males, site: liver, lesion: hepatoblastoma + hepatocellular carcinoma, dosed 101 weeks, study length 103 weeks): 24.7 mg/kg/day
- TD50 (mouse, strain B6C3F1, males, site: liver, lesion: hepatoblastoma, dosed 101 weeks, study length 103 weeks): 52.5 mg/kg/day
- TD50 (mouse, strain B6C3F1, males, site: liver, lesion: hepatocellular adenoma + hepatoblastoma + hepatocellular carcinoma, dosed 101 weeks, study length 103 weeks): 60.2 mg/kg/day
- TD50 (mouse, strain B6C3F1, males, site: liver, lesion: hepatocellular adenoma + hepatocellular carcinoma, dosed 101 weeks, study length 103 weeks): 60.4 mg/kg/day
- TD50 (mouse, strain B6C3F1, males, site: liver, lesion: hepatocellular adenoma, dosed 101 weeks, study length 103 weeks): 46.8 mg/kg/day
- TD50 (mouse, strain B6C3F1, males, site: liver, lesion: hepatocellular carcinoma, dosed 101 weeks, study length 103 weeks): 55 mg/kg/day
- TD50 (mouse, strain B6C3F1, males, site: lung, lesion: alveolar/bronchiolar adenoma + alveolar/bronchiolar carcinoma, dosed 101 weeks, study length 103 weeks): 1760 mg/kg/day
- TD50 (mouse, strain B6C3F1, males, site: thyroid gland, lesion: follicular-cell adenoma, dosed 101 weeks, study length 103 weeks): 349 mg/kg/day
- carcinogen call (rat, strain Fischer 344, females, site: any site (literature study), lesion: several types, types named in the paper, dosed 101 weeks, study length 103 weeks): negative (inactive)
- TD50 (rat, strain Fischer 344, females, site: liver, lesion: hepatocellular adenoma + hepatoblastoma + hepatocellular carcinoma, dosed 101 weeks, study length 103 weeks): 4050 mg/kg/day
- TD50 (rat, strain Fischer 344, males, site: adrenal medulla, lesion: pheochromocytoma benign, bilateral + pheochromocytoma, benign, dosed 99 weeks, study length 103 weeks): 20.8 mg/kg/day
- TD50 (rat, strain Fischer 344, males, site: adrenal medulla, lesion: pheochromocytoma benign, bilateral + pheochromocytoma, malignant + pheochromocytoma, benign, dosed 99 weeks, study length 103 weeks): 20.8 mg/kg/day
- TD50 (rat, strain Fischer 344, males, site: any site (literature study), lesion: several types, types named in the paper, dosed 99 weeks, study length 103 weeks): 15.4 mg/kg/day
- TD50 (rat, strain Fischer 344, males, site: kidney, lesion: tubule adenoma + tubule carcinoma, dosed 99 weeks, study length 103 weeks): 522 mg/kg/day and 967 mg/kg/day
- TD50 (rat, strain Fischer 344, males, site: kidney, lesion: tubule adenoma, dosed 99 weeks, study length 103 weeks): 1280 mg/kg/day and 1290 mg/kg/day
- TD50 (rat, strain Fischer 344, males, site: liver, lesion: hepatocellular adenoma + hepatoblastoma + hepatocellular carcinoma, dosed 99 weeks, study length 103 weeks): 138 mg/kg/day
- TD50 (rat, strain Fischer 344, males, site: testis, lesion: interstitial-cell adenoma, bilateral + interstitial-cell adenoma, dosed 99 weeks, study length 103 weeks): 8.15 mg/kg/day
- TD50 (rat, strain Fischer 344, males, site: thyroid gland, lesion: follicular-cell adenoma + follicular-cell carcinoma, dosed 99 weeks, study length 103 weeks): 80.2 mg/kg/day
- TD50 (rat, strain Fischer 344, males, site: thyroid gland, lesion: follicular-cell adenoma, dosed 99 weeks, study length 103 weeks): 174 mg/kg/day
